Measured values as given in patent publication US20060057669A1, “Inactive transcription factor tif-ia and uses thereof” (priority 2002, published 2006).

Experiments:
Pol I transcription [1] = experiment: In vitro transcription: TIF-IA mutants restoring rDNA transcription of nuclear extract from density-arrested FM3A cells; format: biochemical, murine; details: S633/S649 mutants; 20 and 40 ng
Protocol: (A) Transcriptional activity of TIF-IA mutants in vitro. FLAG-tagged wild-type TIF-IA and the indicated single or double point mutants were overexpressed in HEK293T cells, immunopurified, and 20 and 40 ng were assayed for their capability to restore rDNA transcriptional activity of nuclear extract from density-arrested FM3A cells. The amount and purity of TIF-IA were estimated on silver-stained SDS-polyacrylamide gels and Western blots (data not shown).
(A) Transcriptional activity of TIF-IAS199A and TIF-IAS199D in vitro. FLAG-tagged wild-type TIF-IA and the indicated mutants were immunopurified from HEK293T cells, and 30 and 60 ng were assayed for their capability to restore transcriptional activity of nuclear extract from density-arrested FM3A cells. The amount and purity of TIF-IA were estimated on silver-stained SDS-polyacrylamide gels (data not shown).
(B) Transcriptional activity of TIF-IAS44A in vitro. FLAG-tagged wild-type TIF-IA and the indicated mutant were assayed for their transcriptional activity in vitro.
(§1) Nuclear extracts were prepared from exponentially growing (8×10^5 cells/ml), density-arrested or PD98059-treated (CN Bioscience, Bad Soden, Germany) 40 μM, 0.5 hr) or rapamycin-treated FM3A cells (ATCC, Manassas, USA). 25 μl assays contained 50 ng of template DNA (pMr600/EcoRI), 30 μg nuclear extract proteins and 12 mM Hepes-KOH, [pH8.0], 0.1 mM EDTA, 5 mM MgCl2, 80 mM KCl, 10 mM creatine phosphate, 12% (v/v) glycerol, 0.66 mM each of ATP, GTP and CTP, 0.01 mM UTP and 0.5 μCi [α-^32P]UTP (5000 Ci/mmol). After incubation for 60 min at 30° C., RNA was extracted and analyzed on non-denaturing 5% polyacrylamide gels
TIF-IA was immunopurified from untransfected NIH3T3 cells or from HEK293T cells overexpressing FLAG-tagged TIF-IA. 4×10^6 cells were lysed in 0.8 ml IP buffer (20 mM Tris-HCl [pH 7.4], 200 mM NaCl, 2 mM EDTA, 2 mM EGTA, 1% Triton X-100, 0.5 mM PMSF, 1 μg/ml aprotinin, 5 μg/ml leupeptin and 1 μg/ml pepstatin A), centrifuged at 10,000 g for 30 min, and the supernatants were incubated for 4 hr at 4° C. with either 10 μg anti-TIF-IA antibodies bound to 20 μl protein G-agarose or with anti-FLAG (M2) agarose (Sigma-Aldrich Corp., Missouri, USA). The immunocomplexes were successively washed with buffer AM (20 mM Tris-HCl [pH 8.0], 5 mM MgCl2, 0.1 mM EDTA, 20% glycerol) containing 400 and 100 mM KCl, respectively. The amount and purity of TIF-IA was estimated on silver-stained polyacrylamide gels and similar amounts of bead-bound TIF-IA were used in in vitro transcription assays. GST fusion proteins were expressed in E. coli BL21(DE3) and purified on Glutathione-Sepharose 4B according to the manufacturer's instructions.
To assess the functional relevance of S633 and S649 phosphorylation on transcriptional activity, the respective S→A and S→D single or double point mutants were purified from transfected cells and assayed for their capability to rescue transcription of extracts from density-arrested cells. […] Thus, phosphorylation of TIF-IA at S649 and S633 is required for transcriptional activity.
Phosphorylation of peptide a should inhibit TIF-IA activity, while phosphorylation of peptide b, e.g. S44, should augment TIF-IA activity.

Pol I transcription [2] = experiment: In vitro transcription: TIF-IA mutants added to nuclear extract from exponentially growing FM3A cells; format: biochemical, murine; details: 20 and 40 ng added to 15 ug nuclear extract
Protocol: 20 and 40 ng of the indicated TIF-IA mutants were added to 15 ug nuclear extract from exponentially growing FM3A cells and rDNA transcription was assayed.
as §1
Given that phosphorylation of TIF-IA at serine 649 is essential for transcription, excess of TIF-IAS649A should impair Pol I transcription. To test this, we examined the effect of exogenous wild-type and mutant TIF-IA on transcriptional activity of extracts from exponentially growing cells.

HEK293T cells [3] = experiment: Quantitative fluorimetric viability assay with calcein-AM; format: cell-based; details: 24, 36, 48 and 60 hr after transfection; 2 μM calcein-AM
Protocol: (B) Quantitative fluorimetric viability assay with calcein-AM. HEK293T cells were transfected with TIF-IA or the indicated point mutants. […] Viable cells were measured 24, 36, 48 and 60 hr after transfection by incubation with […] calcein-AM. The gradual increase in fluorescence intensity was recorded with a fluorescence multi-well plate reader for 20 min with an excitation wavelength of 485 nm and an emission wavelength of 530 nm. The proliferation rate of mock-transfected cells and cells overexpressing TIF-IA is shown at the left. Plots show the accumulation of calcein fluorescence (arbitrary units) against time. Growth rates calculated from linear regression curves are shown at the right. Values are presented as the mean±SD from three independent experiments performed in duplicates.
Conversion of calcein-AM (calcein acetoxymethyl ester, (CN Bioscience GmbH, Bad Soden, Germany) to calcein was used to measure cell proliferation. 12 hr after transfection, HEK293T cells were seeded to 96-well micro-plates at 1×10^4 cells/well. After 24, 36, 48 and 60 hr, cells were washed with PBS, incubated with 2 μM calcein-AM, and the gradual increase in fluorescence intensity within the cells was recorded by a fluorescence multi-well plate reader (CytoFluor Series 4000/TC, PerSeptive Biosystems, (Applied Biosystems, Forster City, USA) for 20 min in 1 min intervals. Excitation wavelength used for measurements of fluorescence was 485 nm with a bandwidth of 20 nm; emission wavelength was 530 nm with a bandwidth of 25 nm. Under the experimental conditions used, there is a direct correlation between the accumulation ratio of intracellular calcein fluorescence and the number of viable cells. The data from three independent experiments were analyzed by Sigmaplot and expressed as the mean±standard deviation. For statistical analysis, student's t test was used. Differences with a P<0.01 were considered statistically significant.
Given the functional significance of ERK/RSK-directed TIF-IA phosphorylation on Pol I transcription, mutations that enhance or abrogate TIF-IA activity may have a positive or negative effect on cell growth. To test this, HEK293T cells were transfected with cDNAs encoding wild-type or mutant TIF-IA which harbor single or double point mutations at S649 and S633. The expression of TIF-IA was estimated on Western blots and the cellular growth rate was measured by calcein-AM staining. Calcein-AM is a non-fluorescent, hydrophobic compound that is rapidly hydrolyzed by intracellular esterases releasing hydrophilic fluorescent calcein. Thus, cellular calcein fluorescence correlates with the amount of viable cells. […] Cells expressing FLAG-tagged wild-type or mutant TIF-IA were stained with FITC-conjugated anti-FLAG antibodies, identified by FACS and cell numbers were calculated by measuring the ratio of stained cells versus an internal standard. […] Conversely, the number of cells expressing TIF-IAS649A was 33% lower than the control. […] Taken together, the results reveal a striking correlation between phosphorylation of TIF-IA at serine 649, cellular rRNA synthetic activity and cell cycle progression.

HEK293T cells [4] = experiment: Trypan blue staining; format: cell-based; details: data not shown
HEK293T cells [5] = experiment: Cell enumeration by dual-parameter flow cytometry; format: cell-based; details: 60 hr after transfection
Protocol: (C) Cell enumeration by flow cytometry. HEK293T cells expressing wild-type TIF-IA or the S649 mutants were harvested 60 hours after transfection, stained with FITC-conjugated anti-FLAG M2 antibodies and analyzed by dual-parameter flow cytometry in a FACScan™ flow cytometer in the presence of CaliBRITE™ calibration beads. 60,000 events were recorded from each sample. The number of cells expressing FLAG-TIF-IA was calculated from the ratio between FITC-positive cells and counted beads.
HEK293T cells were harvested 60 hr after transfection with pcDNA-FLAG-TIF-IA, fixed with 2% paraformaldehyde and permeabilized with 0.1% Triton X-100 in PBS. […] Cell were analyzed with a FACSCan™ flow cytometer in the presence of CaliBRITE™ beads (Becton Dickinson, San Jose, USA). The number of cells expressing FLAG-TIF-IA was calculated from the ratio between FITC-positive cells and counted beads.
Given the functional significance of ERK/RSK-directed TIF-IA phosphorylation on Pol I transcription, mutations that enhance or abrogate TIF-IA activity may have a positive or negative effect on cell growth. […] The expression of TIF-IA was estimated on Western blots and the cellular growth rate was measured by calcein-AM staining. […] Thus, cellular calcein fluorescence correlates with the amount of viable cells. […]

HEK293T cells [6] = experiment: Relative DNA content of sorted cells by FACS analysis; format: cell-based
Protocol: HEK293T cells were harvested 60 hr after transfection with pcDNA-FLAG-TIF-IA, fixed with 2% paraformaldehyde and permeabilized with 0.1% Triton X-100 in PBS. Transfected cells were labeled by incubation for 1 hr with 2 μg/ml FITC-conjugated anti-M2 antibodies (Sigma) and subsequently stained with […] propidium iodide (Sigma). Cell were analyzed with a FACSCan™ flow cytometer in the presence of CaliBRITE™ beads (Becton Dickinson, San Jose, USA). The number of cells expressing FLAG-TIF-IA was calculated from the ratio between FITC-positive cells and counted beads.
Given the functional significance of ERK/RSK-directed TIF-IA phosphorylation on Pol I transcription, mutations that enhance or abrogate TIF-IA activity may have a positive or negative effect on cell growth. To test this, HEK293T cells were transfected with cDNAs encoding wild-type or mutant TIF-IA which harbor single or double point mutations at S649 and S633. The expression of TIF-IA was estimated on Western blots and the cellular growth rate was measured by calcein-AM staining. […] Thus, cellular calcein fluorescence correlates with the amount of viable cells. […] Cells expressing FLAG-tagged wild-type or mutant TIF-IA were stained with FITC-conjugated anti-FLAG antibodies, identified by FACS and cell numbers were calculated by measuring the ratio of stained cells versus an internal standard. […]

HEK293T cells [7] = experiment: Images of transfected HEK293T cells; format: cell-based; details: images taken after 48 h
Protocol: HEK293T cells were transfected with TIF-IA or TIFIAS649A, respectively, and images were taken after 48 h.

## TIF-IAS649A: TIF-IA point mutant, serine residue at position 649 replaced by an alanine residue
Pol I transcription [1]
  capability to rescue transcription of extracts from density-arrested cells: abolished TIF-IA activity
Pol I transcription [2]
  effect on transcriptional activity of extracts from exponentially growing cells: acts as a dominant-negative inhibitor of Pol I transcription
Pol I transcription [2]; listed as S649A
  effect on transcriptional activity of extracts from exponentially growing cells: suppressed transcription well below the basal level
HEK293T cells [3]
  cellular growth rate by calcein-AM staining: impaired cell growth
HEK293T cells [4]
  cell viability as cause of growth inhibition: not due to decreased cell viability
HEK293T cells [5]
  number of cells lower than the control: 33%
HEK293T cells [6]
  decrease of G2/M-phase cells: 25%
HEK293T cells [7]
  cell growth on images: retards cell growth
